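Values below derive from 48-hour exposures of cells grown in 96-well plates, with endpoints linearly interpolated between the two concentrations bracketing the appropriate inhibition level. GI50 marks 50% less growth.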 Calls of active or inactive are those of the source. Cut-off read from the data, not from the text of the source: active = GI50 up to about 1.1 µM and inactive = higher.
Legend:
Assay in all cases: DTP human tumour cell line panel, 48 h
HCT-15 = test system: HCT-15
HCC 2998 = test system: HCC 2998
SNB-19 = test system: SNB-19
SK-MEL-28 = test system: SK-MEL-28
NCI-H522 = test system: NCI-H522
M14 = test system: M14
KM12 = test system: KM12
NCI-H460 = test system: NCI-H460
K562 = test system: K562
CCRF-CEM = test system: CCRF-CEM
MDA-MB-435 = test system: MDA-MB-435
SW-620 = test system: SW-620
SN12C = test system: SN12C
HL-60 = test system: HL-60
OVCAR-5 = test system: OVCAR-5
HCT-116 = test system: HCT-116
MDA-MB-231 = test system: MDA-MB-231
MDA-N = test system: MDA-N
OVCAR-8 = test system: OVCAR-8
BT-549 = test system: BT-549

Compound | GI50 (HCT-15) [µM] | GI50 (HCC 2998) | GI50 (SNB-19) | GI50 (SK-MEL-28) | GI50 (NCI-H522) | GI50 (M14) | GI50 (KM12) | GI50 (NCI-H460) | GI50 (K562) | GI50 (CCRF-CEM) | GI50 (MDA-MB-435) | GI50 (SW-620) | GI50 (SN12C) | GI50 (HL-60) | GI50 (OVCAR-5) | GI50 (HCT-116) | GI50 (MDA-MB-231) | GI50 (MDA-N) | GI50 (OVCAR-8) | GI50 (BT-549)
CCNC(=S)N/N=C/c1cc(OC)ccc1O | 47.6 | > 100 µM (inactive) | > 100 µM (inactive) | > 100 µM (inactive) | 65.8 µM (inactive) | > 100 µM (inactive) | 88.1 µM (inactive) | 35.2 µM (inactive) | 97.9 µM (inactive) | 66.5 µM (inactive) | 64.6 µM (inactive) | > 100 µM (inactive) | > 100 µM (inactive) | > 100 µM (inactive) | > 100 µM (inactive) | 85.5 µM (inactive) | > 100 µM (inactive) | > 100 µM (inactive) | > 100 µM (inactive) | –
COc1ccccc1NC(=S)N/N=C(/C)c1ccccn1 | < 0.0318 | 7 µM (inactive) | 6.19 µM (inactive) | 1.71 µM (inactive) | – | < 0.01 µM (active) | 0.117 µM (active) | < 0.0132 µM (active) | < 0.01 µM (active) | < 0.01 µM (active) | 0.968 µM (active) | < 0.01 µM (active) | 0.178 µM (active) | < 0.01 µM (active) | – | < 0.01 µM (active) | < 0.01 µM (active) | 0.637 µM (active) | 0.0112 µM (active) | –
CCC1(O)C(=O)OCc2c1cc1n(c2=O)Cc2c-1nc1ccccc1c2OC (centres undefined) | 0.117 | 0.218 µM (active) | < 0.01 µM (active) | 0.32 µM (active) | 0.0242 µM (active) | < 0.0176 µM (active) | 0.167 µM (active) | < 0.01 µM (active) | < 0.0305 µM (active) | < 0.01 µM (active) | – | < 0.01 µM (active) | < 0.01 µM (active) | < 0.01 µM (active) | 0.0711 µM (active) | 0.0453 µM (active) | – | – | 0.0194 µM (active) | –
COc1ccc2c(c1)Oc1cc(O)ccc1[C@@H]2c1ccccc1C(=O)NC(C)c1ccccc1 (some centres undefined) | 13.7 | 11.9 µM (inactive) | 15.6 µM (inactive) | 15.4 µM (inactive) | 14.4 µM (inactive) | 12.2 µM (inactive) | 13.4 µM (inactive) | 12.2 µM (inactive) | 14.8 µM (inactive) | 15.8 µM (inactive) | – | 19 µM (inactive) | 14.6 µM (inactive) | 11.3 µM (inactive) | 16.4 µM (inactive) | 12.2 µM (inactive) | – | – | 17.6 µM (inactive) | –
C=C1C(=O)CC2C1CC(=O)/C(C)=C/CCC(C)(O)C2O (centres undefined) | 4.9 | 7.74 µM (inactive) | > 54.3 µM (inactive) | 14.9 µM (inactive) | 1.5 µM (inactive) | > 25.2 µM (inactive) | 13.8 µM (inactive) | 2.38 µM (inactive) | 2.19 µM (inactive) | 3.44 µM (inactive) | 6.55 µM (inactive) | 7.26 µM (inactive) | 2.29 µM (inactive) | 4.41 µM (inactive) | 17.5 µM (inactive) | 3.86 µM (inactive) | 1.07 µM (active) | 1.48 µM (inactive) | 4.3 µM (inactive) | –
Cc1ccc(NC(=O)CC/C(CC(=O)C(C)(C)C)=N\NC(=O)C[n+]2ccccc2)cc1C | 53 | > 100 µM (inactive) | > 100 µM (inactive) | > 100 µM (inactive) | > 100 µM (inactive) | > 100 µM (inactive) | > 100 µM (inactive) | 51.9 µM (inactive) | 46.9 µM (inactive) | 45.3 µM (inactive) | – | > 100 µM (inactive) | > 100 µM (inactive) | 32 µM (inactive) | > 100 µM (inactive) | 74.5 µM (inactive) | – | – | > 100 µM (inactive) | –
COP(=O)(OC)C(NC(=O)C(F)(F)F)(c1ccccc1)C(F)(F)F (centres undefined) | > 100 | > 100 µM (inactive) | > 100 µM (inactive) | > 100 µM (inactive) | > 100 µM (inactive) | > 100 µM (inactive) | > 100 µM (inactive) | > 100 µM (inactive) | > 100 µM (inactive) | > 100 µM (inactive) | – | > 100 µM (inactive) | > 100 µM (inactive) | > 100 µM (inactive) | > 100 µM (inactive) | > 100 µM (inactive) | – | – | > 100 µM (inactive) | –
CC(C)(C)CC(C)(C)NCC(O)COc1ccc(C(C)(C)c2ccc(OCC(O)CNC(C)(C)CC(C)(C)C)cc2)cc1 (centres undefined) | 1.37 | 0.349 µM (active) | 1.64 µM (inactive) | 0.615 µM (active) | 1.61 µM (inactive) | 0.279 µM (active) | 1.56 µM (inactive) | 0.46 µM (active) | 0.244 µM (active) | 0.356 µM (active) | – | 0.213 µM (active) | 1.63 µM (inactive) | 1.46 µM (inactive) | 1.88 µM (inactive) | 2.37 µM (inactive) | – | – | 1.64 µM (inactive) | –
O=C1CCC2(CC1CCSc1ccccc1)OCCO2 (centres undefined) | > 100 | > 100 µM (inactive) | > 100 µM (inactive) | > 100 µM (inactive) | > 100 µM (inactive) | > 100 µM (inactive) | > 100 µM (inactive) | > 100 µM (inactive) | > 100 µM (inactive) | > 100 µM (inactive) | > 100 µM (inactive) | > 100 µM (inactive) | – | 95.1 µM (inactive) | > 100 µM (inactive) | – | > 100 µM (inactive) | > 100 µM (inactive) | > 100 µM (inactive) | –
CCC/C(Cl)=N/OC(NC(=O)OCC)(C(F)(F)F)C(F)(F)F | 21.6 | – | > 100 µM (inactive) | 26.5 µM (inactive) | > 100 µM (inactive) | 17.9 µM (inactive) | > 100 µM (inactive) | > 100 µM (inactive) | 25.6 µM (inactive) | 22.1 µM (inactive) | 18.6 µM (inactive) | 19.8 µM (inactive) | 16.7 µM (inactive) | 17.4 µM (inactive) | 16.4 µM (inactive) | 19.4 µM (inactive) | 17.6 µM (inactive) | 20.5 µM (inactive) | 33.9 µM (inactive) | –
Cc1ccc(C(=O)CC(O)(C(F)(F)F)C(F)(F)F)cc1[N+](=O)[O-] | 3.92 | 6.9 µM (inactive) | 9.06 µM (inactive) | 8.15 µM (inactive) | 0.331 µM (active) | 6.59 µM (inactive) | 2.19 µM (inactive) | 5.78 µM (inactive) | 2.79 µM (inactive) | 4.63 µM (inactive) | 8.41 µM (inactive) | 16.8 µM (inactive) | 10 µM (inactive) | 2.12 µM (inactive) | 18 µM (inactive) | 5.3 µM (inactive) | 7.55 µM (inactive) | 10.2 µM (inactive) | 10.2 µM (inactive) | –
O=C1CCCC2=C1CC1=C(CCCC1=O)N2c1ccccc1C(=O)O | > 100 | > 100 µM (inactive) | > 100 µM (inactive) | > 100 µM (inactive) | – | > 100 µM (inactive) | > 100 µM (inactive) | > 100 µM (inactive) | > 100 µM (inactive) | > 100 µM (inactive) | – | > 100 µM (inactive) | > 100 µM (inactive) | > 100 µM (inactive) | > 100 µM (inactive) | – | – | – | > 100 µM (inactive) | > 100 µM (inactive)
Cc1cccc2c(=O)c3cccc(CC(=O)O)c3oc12 | > 100 | > 100 µM (inactive) | > 100 µM (inactive) | > 100 µM (inactive) | > 100 µM (inactive) | > 100 µM (inactive) | > 100 µM (inactive) | > 100 µM (inactive) | > 100 µM (inactive) | > 100 µM (inactive) | > 100 µM (inactive) | > 100 µM (inactive) | > 100 µM (inactive) | > 100 µM (inactive) | – | > 100 µM (inactive) | > 100 µM (inactive) | > 100 µM (inactive) | > 100 µM (inactive) | –
CCOC(=O)/C(C)=C(/O)C(=O)OCC | > 100 | > 100 µM (inactive) | > 100 µM (inactive) | > 100 µM (inactive) | > 100 µM (inactive) | > 100 µM (inactive) | > 100 µM (inactive) | > 100 µM (inactive) | > 100 µM (inactive) | > 100 µM (inactive) | – | > 100 µM (inactive) | > 100 µM (inactive) | > 100 µM (inactive) | > 100 µM (inactive) | > 100 µM (inactive) | – | – | > 100 µM (inactive) | –
Nc1ccc(Nc2cc(O)nc(O)n2)cc1 | > 100 | > 100 µM (inactive) | > 100 µM (inactive) | > 100 µM (inactive) | > 100 µM (inactive) | – | > 100 µM (inactive) | > 100 µM (inactive) | > 100 µM (inactive) | > 100 µM (inactive) | > 100 µM (inactive) | > 100 µM (inactive) | > 100 µM (inactive) | > 100 µM (inactive) | – | > 100 µM (inactive) | > 100 µM (inactive) | > 100 µM (inactive) | > 100 µM (inactive) | –
O=[N+]([O-])c1ccc(-c2nnc(C34CC5CC(CC(C5)C3)C4)o2)cc1 | > 100 | > 100 µM (inactive) | > 100 µM (inactive) | > 100 µM (inactive) | > 100 µM (inactive) | > 100 µM (inactive) | > 100 µM (inactive) | > 100 µM (inactive) | > 100 µM (inactive) | > 100 µM (inactive) | > 100 µM (inactive) | > 100 µM (inactive) | > 100 µM (inactive) | > 100 µM (inactive) | > 100 µM (inactive) | > 100 µM (inactive) | > 100 µM (inactive) | > 100 µM (inactive) | – | –
CC(C)(O)C(O)COc1c2c(cc3oc(=O)ccc13)OCO2 (centres undefined) | > 100 | > 100 µM (inactive) | > 100 µM (inactive) | > 100 µM (inactive) | > 100 µM (inactive) | > 100 µM (inactive) | > 100 µM (inactive) | > 100 µM (inactive) | > 100 µM (inactive) | > 100 µM (inactive) | – | > 100 µM (inactive) | > 100 µM (inactive) | > 100 µM (inactive) | > 100 µM (inactive) | > 100 µM (inactive) | – | – | > 100 µM (inactive) | –

Source: ChEMBL document CHEMBL1201862, “PubChem BioAssay data set” (2004)
